Assay results: patent US8163894B2, “DNA for eukaryotic expression of CymR” (National Research Council of Canada, priority 2001, dated 2012)

What was measured:
[1] = tested on: cumate activator (rAd vectors); assay: Co-infection with recombinant adenoviral reporter and activator viruses
[2] = target: T1, CymR repressor in 293 cells (Pseudomonas putida, UniProt O33453); assay: Strategy 2: CymR-mediated repression of CMV5-operator LacZ reporters, transient transfection in 293 cells; format: cell-based
T1 construct: expressed in transfected cells; host or cells: 293 cells
T1 sequence (O33453 whole entry): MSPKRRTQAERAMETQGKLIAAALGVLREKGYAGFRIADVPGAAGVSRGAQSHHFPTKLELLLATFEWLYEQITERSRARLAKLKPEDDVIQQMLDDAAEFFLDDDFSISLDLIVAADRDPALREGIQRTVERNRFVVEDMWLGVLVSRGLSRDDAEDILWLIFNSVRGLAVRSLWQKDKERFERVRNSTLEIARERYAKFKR
Method: Transient transfections in 293 and HeLa cells were carried out using the calcium phosphate technique. One (1) ml of DNA-calcium phosphate precipitate contained 5 μg reporter, 250 ng activator/repressor (unless mentioned otherwise) and 3 μg seap in a total of 10 μg DNA. This was divided equally between two 60 mm plates, each containing 10^6 293 cells. One of the two plates received in addition 200 μg/ml cumate.
Cells were lysed 48 h post-transfection by three freeze-thaw cycles in 0.25M Tris.Hcl pH8. The cell lysate was centrifuged at 14,000×g and enzyme (β-galactosidase) activity was measured in the supernatant (cell extract) using a colorimetric assay containing 1 mM MgCl2, 0.9 mg/ml ONPG, and 66 mM sodium phosphate (pH 7.5). Reactions were incubated at 37° C. until a faint yellow color had developed. OD420 was measured at regular intervals until the reaction appeared to plateau. To measure low level activity (basal activity in the absence of transactivation) a chemiluminescent substrate was used. The reaction was performed using a kit from Roche diagnostics according to the instructions of the manufacturer.

[3] = tested on: CymR-mediated expression (P2-cymlacZ fusion system); assay: Induction of expression in the P2-cymlacZ fusion system by candidate effectors; format: cell-based, Pseudomonas putida; settings: P2-cymlacZ fusion system
Source text: The need to solubilize p-cumate (p-cumic acid) in organic solvent (e.g. ethanol or dimethyl formamide) is a great disadvantage. The present invention thus provides water-soluble effectors as well as possibly expanding the spectrum of inducers beyond p-cumate. At first, cumic alcohol, 4-methyl benzylalcohol, ethyltoluene, indole-2-carboxylic acid, indole-3-carboxylic acid, benzoic acid, 3- and 4-hydroxybenzoic acids, 3,4-dihyroxybenzoic acid and 2,4-dihydrobenzoic acid were tried. […] In this P2-cymlacZ fusion system, the threshold cumate concentration for induction is in the order of 0.002 millimolar (mM).
The sodium salt of cumic acid was also tested vs cumic acid (taken as cumate).
Both sodium benzoate and sodium toluate are ineffective.

293-CymR clones = assay: Infection of 293-CymR clones with AdCMV5-Og-LacZ, β-galactosidase activity; format: cell-based; settings: 200 μg/ml cumate
Method: 1×10^6 293 cells were transfected with 10 μg of pCymR/tk-neo by the calcium phosphate technique. 400 μg/ml G418 was added to the growth medium 48 h after transfection to select a pool of G418-resistant cells. Individual clones (293-CymR) were isolated from this pool by the method of limiting dilution.
293CymR clones were infected with AdCMV5-Og-LacZ in the presence and absence of 200 μg/ml cumate. β-galactosidase activity was measured 48 h post-infection.

[4] = target: CymR-VP16 transactivator in BMAdE1/78-42 cells (Pseudomonas putida, UniProt O33453); format: cell-based
Sequence of CymR-VP16 transactivator in BMAdE1/78-42 cells (O33453 whole entry, added parts left off): as the sequence (O33453 whole entry) above
Method: Transient transfections in BMAD78-42 were carried out using Geneporter™ according to manufacturers directions. Briefly, 3 μg DNA (2 μg reporter, 25 ng transactivator and 0.5 μg seap) in 500 μl DMEM was added to 6×10^5 BMAd78-42 cells in DMEM. After 3 h 1 ml DMEM supplemented with 20% serum was added to the plates. Half the samples received DMEM supplemented with 20% serum and 400 μg/ml cumate.
Measurement of Seap and β-gal activity Seap activity was measured in 50 μl of cell culture medium by adding 50 μl of 2× seap buffer (1M diethanolamine PH 9.8, 2 mM MgCl2, 10 mM 1-homoarginine and 20 mM p-nitrophenyl phosphate, disodium, hexahydrate Sigma 104 phosphatase substrate) and incubating at room temperature. OD405 was read using a plate reader at different intervals. This information was used to ensure that the enzyme activity was measured under conditions where the substrate was in excess. β-galactosidase activity was measured in transfected cell extracts. Cells were lysed 48 h post-transfection by three freeze-thaw cycles in 0.25M Tris.Hcl pH8. The cell lysate was centrifuged at 14,000×g and enzyme (β-galactosidase) activity was measured in the supernatant (cell extract) using a colorimetric assay containing 1 mM MgCl2, 0.9 mg/ml ONPG, and 66 mM sodium phosphate (pH 7.5). […] OD420 was measured at regular intervals until the reaction appeared to plateau. […]

CC(C)c1ccc(C(=O)O)cc1 [cumate, cumic acid]
share of the increase obliterated by addition of cumate ([1]; reporter moi 10, activator moi 0.1): 95%
share of the increase obliterated by addition of cumate ([1]; reporter moi 10, activator moi 1): 98%
activity of the unrepressed state recovered on addition of cumate ([2]; nls-containing repressor, pAdCMV5-Og-LacZ): 61%
relief of repression on addition of cumate ([2]; nls-containing repressor, pAdCMV5-Os-LacZ): relieved the repression completely
relief of repression on addition of cumate ([2]; pAdCymR, both pAdCMV5-Os-LacZ and pAdCMV5-Og-LacZ): relieved the repression totally
threshold cumate concentration for induction [3]: ~0.002 mM
ON/OFF ratio (β-gal with vs without cumate) (293-CymR clones; 293-CymR clone 21, AdCMV5-Og-LacZ): 19
ON/OFF ratio (β-gal with vs without cumate) (293-CymR clones; 293-CymR clone 22, AdCMV5-Og-LacZ): 16
ON/OFF ratio (β-gal with vs without cumate) (293-CymR clones; 293-CymR clone 23, AdCMV5-Og-LacZ): 7.6
reduction of activation on addition of cumate ([4]; BMAdE1/78-42, pAdcTA1(+nls)): 3.9 fold
reduction in activation on addition of cumate ([4]; BMAdE1/78-42, pAdcTA1(−nls)): 22 fold
